Assay results as given in ChEMBL document CHEMBL1165947, “Synthesis and antitumor activity of 2,5-bis(3'-indolyl)-furans and 3,5-bis(3'-indolyl)-isoxazoles, nortopsentin analogues” (Bioorg Med Chem, 2010).

Tested on: P388
Test: Cytotoxicity against mouse P388 cells
Type: functional, cell-based

**Q.** How did the IC50 turn out when `Cn1c(-c2cn(C)c3cc(Br)ccc23)cnc1-c1cn(C)c2ccccc12` was run?
**A.** 800 nM
